Data: paper PMC6009956, “Design, synthesis and biological activity of N^4-phenylsubstituted-7H-pyrrolo[2,3-d]pyrimidin-4-amines as dual inhibitors of aurora kinase A and epidermal growth factor receptor kinase” (Journal of Enzyme Inhibition and Medicinal Chemistry, 2017)
Read-outs that look alike come from different tables or passages of the source.

Legend:
[1] = target: T1, aurora A kinase (AURKA) (Homo sapiens, UniProt O14965); experiment: ADP-Glo kinase assay, Aurora A; type: biochemical
T1 construct: purchased BPS Bioscience (assay run externally by the vendor)
T1 sequence (O14965 1-403): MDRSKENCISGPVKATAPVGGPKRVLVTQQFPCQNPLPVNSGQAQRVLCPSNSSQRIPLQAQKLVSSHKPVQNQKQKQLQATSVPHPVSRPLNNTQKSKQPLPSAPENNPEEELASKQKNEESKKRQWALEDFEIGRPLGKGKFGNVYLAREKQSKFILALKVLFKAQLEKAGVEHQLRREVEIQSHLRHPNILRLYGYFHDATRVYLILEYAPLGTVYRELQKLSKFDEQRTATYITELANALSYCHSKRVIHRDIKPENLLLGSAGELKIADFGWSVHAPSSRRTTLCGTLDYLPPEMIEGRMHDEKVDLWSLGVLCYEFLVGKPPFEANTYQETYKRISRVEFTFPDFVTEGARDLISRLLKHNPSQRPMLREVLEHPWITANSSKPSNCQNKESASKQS

[2] = target: EGFR (Homo sapiens, UniProt P00533); experiment: ADP-Glo kinase assay, EGFR; type: biochemical; set-up: purchased BPS Bioscience (assay run externally by the vendor)
[3] = 10 µM ATP, triplicate, read-out: AURKA IC50 ± SD
[4] = 10 µM ATP/0.2 mg/ml Kemptide, read-out: Aurora A IC50 (dose-response curve, supplement)
[5] = 10 µM ATP/0.2 mg/ml Poly-Glu-Tyr, read-out: EGFR IC50 (dose-response curve, supplement)

Chain of EGFR (P00533 25-1210): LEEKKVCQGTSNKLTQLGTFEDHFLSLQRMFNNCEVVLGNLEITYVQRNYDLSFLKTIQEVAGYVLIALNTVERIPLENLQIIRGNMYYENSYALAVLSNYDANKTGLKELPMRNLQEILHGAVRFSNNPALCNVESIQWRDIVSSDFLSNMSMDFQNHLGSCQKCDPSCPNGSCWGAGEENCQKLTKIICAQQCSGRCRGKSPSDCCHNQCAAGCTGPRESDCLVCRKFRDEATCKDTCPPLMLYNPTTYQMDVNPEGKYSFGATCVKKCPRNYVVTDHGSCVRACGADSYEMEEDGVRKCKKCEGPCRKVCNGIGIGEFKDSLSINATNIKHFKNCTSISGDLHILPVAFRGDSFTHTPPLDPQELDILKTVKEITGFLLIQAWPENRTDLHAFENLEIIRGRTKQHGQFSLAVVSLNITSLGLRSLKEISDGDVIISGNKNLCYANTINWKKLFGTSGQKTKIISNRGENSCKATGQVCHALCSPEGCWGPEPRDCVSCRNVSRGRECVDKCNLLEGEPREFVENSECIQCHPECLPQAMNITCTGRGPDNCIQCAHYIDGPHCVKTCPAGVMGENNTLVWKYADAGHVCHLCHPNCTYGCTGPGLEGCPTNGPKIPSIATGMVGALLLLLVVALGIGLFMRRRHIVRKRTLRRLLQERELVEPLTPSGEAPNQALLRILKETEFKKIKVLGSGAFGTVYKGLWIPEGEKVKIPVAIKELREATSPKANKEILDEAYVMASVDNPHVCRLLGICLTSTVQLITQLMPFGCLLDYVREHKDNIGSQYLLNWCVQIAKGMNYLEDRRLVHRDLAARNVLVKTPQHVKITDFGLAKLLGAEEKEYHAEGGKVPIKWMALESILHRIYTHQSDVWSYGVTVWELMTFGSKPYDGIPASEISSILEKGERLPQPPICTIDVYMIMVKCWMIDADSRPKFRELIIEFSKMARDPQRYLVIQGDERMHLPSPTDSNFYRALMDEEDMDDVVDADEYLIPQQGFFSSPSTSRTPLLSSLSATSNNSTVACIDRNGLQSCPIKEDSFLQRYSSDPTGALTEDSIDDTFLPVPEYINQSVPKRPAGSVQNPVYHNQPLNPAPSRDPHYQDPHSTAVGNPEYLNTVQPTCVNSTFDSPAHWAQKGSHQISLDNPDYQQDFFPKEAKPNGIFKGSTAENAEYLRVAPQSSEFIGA

## FC(F)(F)c1cccc(Nc2ncnc3[nH]ccc23)c1 [Compound 13, N^4-(3-trifluoromethylphenyl)-7H-pyrrolo[2,3-d]pyrimidin-4-amine]
[1]; [3]
  IC50: 5780 ± 430 nM
[1]; [4]
  IC50: 5800 nM
[1]; Log[nM] 0
  Aurora A % Activity Set1: 94%
  Aurora A % Activity Set2: 101%
  Aurora A % Activity Set3: 96%
[1]; Log[nM] 1.0
  Aurora A % Activity Set1: 103%
  Aurora A % Activity Set2: 101%
  Aurora A % Activity Set3: 106%
[1]; Log[nM] 1.5
  Aurora A % Activity Set1: 107%
  Aurora A % Activity Set2: 113%
  Aurora A % Activity Set3: 119%
[1]; Log[nM] 2.0
  Aurora A % Activity Set1: 110%
  Aurora A % Activity Set2: 108%
  Aurora A % Activity Set3: 113%
[1]; Log[nM] 2.5
  Aurora A % Activity Set1: 108%
  Aurora A % Activity Set2: 108%
  Aurora A % Activity Set3: 112%
[1]; Log[nM] 3.0
  Aurora A % Activity Set1: 94%
  Aurora A % Activity Set2: 100%
  Aurora A % Activity Set3: 94%
[1]; Log[nM] 3.5
  Aurora A % Activity Set1: 73%
  Aurora A % Activity Set2: 63%
  Aurora A % Activity Set3: 72%
[1]; Log[nM] 4.0
  Aurora A % Activity Set1: 32%
  Aurora A % Activity Set2: 26%
  Aurora A % Activity Set3: 28%
[1]; Log[nM] 4.5
  Aurora A % Activity Set1: 13%
  Aurora A % Activity Set2: 10%
  Aurora A % Activity Set3: 11%
[1]; Log[nM] 5.0
  Aurora A % Activity Set1: 14%
  Aurora A % Activity Set2: 11%
  Aurora A % Activity Set3: 13%
[2]; 10 µM ATP, triplicate, cell without unit, read-out: EGFR IC50 ± SD
  IC50: 43.6 ± 7.77 nM
[2]; [5]
  IC50: 43.9 nM
[2]; Log[nM] 0
  EGFR % Activity Set1: 91%
  EGFR % Activity Set2: 92%
  EGFR % Activity Set3: 91%
[2]; Log[nM] 1.0
  EGFR % Activity Set1: 66%
  EGFR % Activity Set2: 76%
  EGFR % Activity Set3: 95%
[2]; Log[nM] 1.5
  EGFR % Activity Set1: 54%
  EGFR % Activity Set2: 61%
  EGFR % Activity Set3: 56%
[2]; Log[nM] 2.0
  EGFR % Activity Set1: 29%
  EGFR % Activity Set2: 30%
  EGFR % Activity Set3: 32%
[2]; Log[nM] 2.5
  EGFR % Activity Set1: 17%
  EGFR % Activity Set2: 19%
  EGFR % Activity Set3: 15%
[2]; Log[nM] 3.0
  EGFR % Activity Set1: 8%
  EGFR % Activity Set2: 8%
  EGFR % Activity Set3: 6%
[2]; Log[nM] 3.5
  EGFR % Activity Set1: 3%
  EGFR % Activity Set2: 4%
  EGFR % Activity Set3: 3%
[2]; Log[nM] 4.0
  EGFR % Activity Set1: 0%
  EGFR % Activity Set2: 1%
  EGFR % Activity Set3: 1%
[2]; Log[nM] 4.5
  EGFR % Activity Set1: 0%
  EGFR % Activity Set2: 1%
  EGFR % Activity Set3: 0%
[2]; Log[nM] 5.0
  EGFR % Activity Set1: 0%
  EGFR % Activity Set2: 0%
  EGFR % Activity Set3: 1%

## Brc1ccc(Nc2ncnc3[nH]ccc23)cc1 [Compound 10, N^4-(4-bromophenyl)-7H-pyrrolo[2,3-d]pyrimidin-4-amine]
[1]; [3]
  IC50: 3730 ± 120 nM
[1]; [4]
  IC50: 3700 nM
[1]; Log[nM] 0
  Aurora A % Activity Set1: 98%
  Aurora A % Activity Set2: 87%
  Aurora A % Activity Set3: 96%
[1]; Log[nM] 1.0
  Aurora A % Activity Set1: 97%
  Aurora A % Activity Set2: 94%
  Aurora A % Activity Set3: 94%
[1]; Log[nM] 1.5
  Aurora A % Activity Set1: 100%
  Aurora A % Activity Set2: 95%
  Aurora A % Activity Set3: 95%
[1]; Log[nM] 2.0
  Aurora A % Activity Set1: 102%
  Aurora A % Activity Set2: 97%
  Aurora A % Activity Set3: 101%
[1]; Log[nM] 2.5
  Aurora A % Activity Set1: 100%
  Aurora A % Activity Set2: 93%
  Aurora A % Activity Set3: 98%
[1]; Log[nM] 3.0
  Aurora A % Activity Set1: 82%
  Aurora A % Activity Set2: 83%
  Aurora A % Activity Set3: 82%
[1]; Log[nM] 3.5
  Aurora A % Activity Set1: 60%
  Aurora A % Activity Set2: 55%
  Aurora A % Activity Set3: 53%
[1]; Log[nM] 4.0
  Aurora A % Activity Set1: 20%
  Aurora A % Activity Set2: 19%
  Aurora A % Activity Set3: 20%
[1]; Log[nM] 4.5
  Aurora A % Activity Set1: 9%
  Aurora A % Activity Set2: 9%
  Aurora A % Activity Set3: 9%
[1]; Log[nM] 5.0
  Aurora A % Activity Set1: 10%
  Aurora A % Activity Set2: 10%
  Aurora A % Activity Set3: 9%
[2]; 10 µM ATP, triplicate, read-out: EGFR IC50 ± SD
  IC50: 125 ± 16.4 nM
[2]; [5]
  IC50: 125 nM
[2]; Log[nM] 0
  EGFR % Activity Set1: 90%
  EGFR % Activity Set2: 96%
  EGFR % Activity Set3: 103%
[2]; Log[nM] 1.0
  EGFR % Activity Set1: 97%
  EGFR % Activity Set2: 90%
  EGFR % Activity Set3: 97%
[2]; Log[nM] 1.5
  EGFR % Activity Set1: 78%
  EGFR % Activity Set2: 82%
  EGFR % Activity Set3: 80%
[2]; Log[nM] 2.0
  EGFR % Activity Set1: 53%
  EGFR % Activity Set2: 56%
  EGFR % Activity Set3: 51%
[2]; Log[nM] 2.5
  EGFR % Activity Set1: 30%
  EGFR % Activity Set2: 29%
  EGFR % Activity Set3: 28%
[2]; Log[nM] 3.0
  EGFR % Activity Set1: 14%
  EGFR % Activity Set2: 12%
  EGFR % Activity Set3: 12%
[2]; Log[nM] 3.5
  EGFR % Activity Set1: 6%
  EGFR % Activity Set2: 5%
  EGFR % Activity Set3: 5%
[2]; Log[nM] 4.0
  EGFR % Activity Set1: 2%
  EGFR % Activity Set2: 2%
  EGFR % Activity Set3: 2%
[2]; Log[nM] 4.5
  EGFR % Activity Set1: 1%
  EGFR % Activity Set2: 1%
  EGFR % Activity Set3: 1%
[2]; Log[nM] 5.0
  EGFR % Activity Set1: 1%
  EGFR % Activity Set2: 1%
  EGFR % Activity Set3: 1%
